Tested on: MV-4-11 cells
Experiment: Gene expression microarray analysis (Affymetrix PrimeView) and GSEA
Assay type: cell-based, human
Set-up: RFU PODN (11730768_x_at) / Fold change /veh PODN (11730768_x_at) / RFU LINC00158 (11744669_a_at) / Fold change /veh LINC00158 (11744669_a_at) / RFU DUSP10 (11751237_a_at) / Fold change /veh DUSP10 (11751237_a_at) / RFU ID3 (11757404_x_at) / Fold change /veh ID3 (11757404_x_at) / RFU PLEKHG5 (11737974_s_at) / Fold change /veh PLEKHG5 (11737974_s_at) / RFU LRRC4B (11730491_at) / Fold change /veh LRRC4B (11730491_at) / RFU GIMAP4 (11747438_a_at) / Fold change /veh GIMAP4 (11747438_a_at) / RFU KRT8 (11758183_x_at) / Fold change /veh KRT8 (11758183_x_at) / RFU CNN1 (11734310_a_at) / Fold change /veh CNN1 (11734310_a_at) / RFU VPS37D (11726825_at) / Fold change /veh VPS37D (11726825_at) / RFU C10orf10 (11716522_x_at) / Fold change /veh C10orf10 (11716522_x_at) / RFU KIR2DL2 /// KIR2DL4 /// KIR2DL5A /// KIR2DL5B /// KIR2DS1 /// KIR2DS2 /// KIR2DS3 /// KIR2DS4 /// KIR3DL3 /// KIR3DL3 /// KIR3DS1 (11738374_at) / Fold change /veh KIR2DL2 /// KIR2DL4 /// KIR2DL5A /// KIR2DL5B /// KIR2DS1 /// KIR2DS2 /// KIR2DS3 /// KIR2DS4 /// KIR3DL3 /// KIR3DL3 /// KIR3DS1 (11738374_at) / RFU C1QL1 (11718748_at) / Fold change /veh C1QL1 (11718748_at) / RFU TMPRSS4 (11747572_a_at) / Fold change /veh TMPRSS4 (11747572_a_at) / RFU HAMP (11756126_x_at) / Fold change /veh HAMP (11756126_x_at) / RFU RNFT2 (11725882_a_at) / Fold change /veh RNFT2 (11725882_a_at) / RFU NR4A2 (11747474_a_at) / Fold change /veh NR4A2 (11747474_a_at) / RFU ABCC12 (11746883_a_at) / Fold change /veh ABCC12 (11746883_a_at) / RFU TMEM136 (11760407_x_at) / Fold change /veh TMEM136 (11760407_x_at) / RFU CLDN22 /// WWC2 (11732394_at) / Fold change /veh CLDN22 /// WWC2 (11732394_at) / RFU HLA-DPB1 (11760878_x_at) / Fold change /veh HLA-DPB1 (11760878_x_at) / RFU SPINT1 (11716480_a_at) / Fold change /veh SPINT1 (11716480_a_at) / RFU GAP43 (11754022_s_at) / Fold change /veh GAP43 (11754022_s_at) / RFU A4GNT (11735810_at) / Fold change /veh A4GNT (11735810_at) / RFU PRB3 (11715151_x_at) / Fold change /veh PRB3 (11715151_x_at) / RFU TUBB4B (11761932_at) / Fold change /veh TUBB4B (11761932_at) / RFU CAPN14 (11732068_a_at) / Fold change /veh CAPN14 (11732068_a_at) / RFU TMCC2 (11721928_a_at) / Fold change /veh TMCC2 (11721928_a_at) / RFU IRGQ (11745062_a_at) / Fold change /veh IRGQ (11745062_a_at) / RFU FAM174B (11720279_a_at) / Fold change /veh FAM174B (11720279_a_at) / RFU TMPRSS4 (11748680_a_at) / Fold change /veh TMPRSS4 (11748680_a_at) / RFU FAM212B (11763350_a_at) / Fold change /veh FAM212B (11763350_a_at) / RFU PLEKHG5 (11743358_a_at) / Fold change /veh PLEKHG5 (11743358_a_at) / RFU ZSCAN30 (11745921_a_at) / Fold change /veh ZSCAN30 (11745921_a_at) / RFU CMKLR1 (11741424_a_at) / Fold change /veh CMKLR1 (11741424_a_at) / RFU LOC101060620 /// MAPK8IP1 (11723275_at) / Fold change /veh LOC101060620 /// MAPK8IP1 (11723275_at) / RFU SPTSSB (11747773_x_at) / Fold change /veh SPTSSB (11747773_x_at) / RFU PRSS12 (11739890_at) / Fold change /veh PRSS12 (11739890_at) / RFU BIN1 (11741810_x_at) / Fold change /veh BIN1 (11741810_x_at) / RFU WNT11 (11732464_a_at) / Fold change /veh WNT11 (11732464_a_at) / RFU C10orf10 (11716521_a_at) / Fold change /veh C10orf10 (11716521_a_at) / RFU C5orf56 (11738089_at) / Fold change /veh C5orf56 (11738089_at) / RFU CYB561 (11721691_x_at) / Fold change /veh CYB561 (11721691_x_at) / RFU ANKRD19P (11752326_a_at) / Fold change /veh ANKRD19P (11752326_a_at) / RFU OR2T12 /// OR2T33 /// OR2T8 (11738714_s_at) / Fold change /veh OR2T12 /// OR2T33 /// OR2T8 (11738714_s_at) / RFU VCAN (11748164_a_at) / Fold change /veh VCAN (11748164_a_at) / RFU JSRP1 (11732532_at) / Fold change /veh JSRP1 (11732532_at) / RFU KRTAP10-11 (11738290_x_at) / Fold change /veh KRTAP10-11 (11738290_x_at) / RFU MYO3A (11730013_a_at) / Fold change /veh MYO3A (11730013_a_at) / RFU EBF3 (11725865_a_at) / Fold change /veh EBF3 (11725865_a_at) / RFU CAMK2N1 (11719241_x_at) / Fold change /veh CAMK2N1 (11719241_x_at) / RFU C5orf56 (11738088_a_at) / Fold change /veh C5orf56 (11738088_a_at) / RFU OLFML3 (11715873_a_at) / Fold change /veh OLFML3 (11715873_a_at) / RFU LOC100653217 /// NTM (11731650_a_at) / Fold change /veh LOC100653217 /// NTM (11731650_a_at) / RFU MAPK11 (11762145_a_at) / Fold change /veh MAPK11 (11762145_a_at) / RFU FIZ1 (11724087_x_at) / Fold change /veh FIZ1 (11724087_x_at) / RFU OASL (11726364_x_at) / Fold change /veh OASL (11726364_x_at) / RFU SOX15 (11748057_x_at) / Fold change /veh SOX15 (11748057_x_at) / RFU CD79A (11719716_a_at) / Fold change /veh CD79A (11719716_a_at) / RFU HIST1H1D (11736915_at) / Fold change /veh HIST1H1D (11736915_at) / RFU CASKIN2 (11723855_a_at) / Fold change /veh CASKIN2 (11723855_a_at) / RFU LOC730098 (11760151_x_at) / Fold change /veh LOC730098 (11760151_x_at) / RFU OR4N2 (11742367_at) / Fold change /veh OR4N2 (11742367_at) / RFU PRRT2 (11749266_a_at) / Fold change /veh PRRT2 (11749266_a_at) / RFU SNX32 (11753110_a_at) / Fold change /veh SNX32 (11753110_a_at) / RFU CDHR5 (11726645_a_at) / Fold change /veh CDHR5 (11726645_a_at) / RFU RCAN1 (11760418_a_at) / Fold change /veh RCAN1 (11760418_a_at) / RFU FAM167A (11723789_a_at) / Fold change /veh FAM167A (11723789_a_at) / RFU FAM26E (11764081_at) / Fold change /veh FAM26E (11764081_at) / RFU ISYNA1 (11749810_s_at) / Fold change /veh ISYNA1 (11749810_s_at) / RFU ACY1 (11761880_at) / Fold change /veh ACY1 (11761880_at) / RFU 11764098_at / Fold change /veh 11764098_at / RFU SAMD14 (11745864_x_at) / Fold change /veh SAMD14 (11745864_x_at) / RFU NPB (11741838_a_at) / Fold change /veh NPB (11741838_a_at) / RFU TMPRSS6 (11731388_a_at) / Fold change /veh TMPRSS6 (11731388_a_at) / RFU KRTAP10-2 (11738614_at) / Fold change /veh KRTAP10-2 (11738614_at) / RFU ARHGAP8 /// PRR5-ARHGAP8 (11727945_x_at) / Fold change /veh ARHGAP8 /// PRR5-ARHGAP8 (11727945_x_at) / RFU KRTAP5-7 /// NADSYN1 (11734609_at) / Fold change /veh KRTAP5-7 /// NADSYN1 (11734609_at) / RFU RASL12 (11751679_a_at) / Fold change /veh RASL12 (11751679_a_at) / RFU CDKN2B (11736163_a_at) / Fold change /veh CDKN2B (11736163_a_at) / RFU PRF1 (11729649_at) / Fold change /veh PRF1 (11729649_at) / RFU, ZNF638 /// ZNF638-IT1 / Fold change vs veh, ZNF638 /// ZNF638-IT1 / RFU, PANK3 / Fold change vs veh, PANK3 / RFU, SH3YL1 / Fold change vs veh, SH3YL1 / RFU, ZEB2 / Fold change vs veh, ZEB2 / RFU, NRIP1 / Fold change vs veh, NRIP1 / RFU, PTTG1IP / Fold change vs veh, PTTG1IP / RFU, CAPN2 / Fold change vs veh, CAPN2 / RFU, MED14 / Fold change vs veh, MED14 / RFU, SNORA58 / Fold change vs veh, SNORA58 / RFU, C1orf63 / Fold change vs veh, C1orf63 / RFU, LRRFIP1 / Fold change vs veh, LRRFIP1 / RFU, NDUFAF7 / Fold change vs veh, NDUFAF7 / RFU, SLC12A2 / Fold change vs veh, SLC12A2 / RFU, IBTK / Fold change vs veh, IBTK / RFU, ESF1 / Fold change vs veh, ESF1 / Fold change vs veh, TMEM50B / RFU, TAOK1 / Fold change vs veh, TAOK1 / RFU, ACBD3 / Fold change vs veh, ACBD3 / RFU, TMA16 / Fold change vs veh, TMA16 / RFU, RWDD3 / Fold change vs veh, RWDD3 / RFU, BCAT1 / Fold change vs veh, BCAT1 / RFU, EDEM3 / Fold change vs veh, EDEM3 / RFU, TMEM33 / Fold change vs veh, TMEM33 / RFU, WDR75 / Fold change vs veh, WDR75 / RFU, AHCTF1 / Fold change vs veh, AHCTF1 / RFU, TFRC / Fold change vs veh, TFRC / RFU, ZDHHC17 / Fold change vs veh, ZDHHC17 / RFU, NOM1 / Fold change vs veh, NOM1 / RFU, ARL8B / Fold change vs veh, ARL8B / RFU, ZBTB11 / Fold change vs veh, ZBTB11 / RFU, TAMM41 / Fold change vs veh, TAMM41 / RFU, KIAA1704 /// LOC100996395 / Fold change vs veh, KIAA1704 /// LOC100996395 / RFU, ING1 / Fold change vs veh, ING1 / RFU, TRMT61B / Fold change vs veh, TRMT61B / RFU, FUBP3 / Fold change vs veh, FUBP3 / RFU, TP53 / Fold change vs veh, TP53 / RFU, TNKS2 / Fold change vs veh, TNKS2 / RFU, ZFP14 / Fold change vs veh, ZFP14 / RFU, ACTR2 / Fold change vs veh, ACTR2 / RFU, PPP3R1 / Fold change vs veh, PPP3R1 / RFU, PIK3R1 / Fold change vs veh, PIK3R1 / RFU, HNRNPA1 / Fold change vs veh, HNRNPA1 / RFU, RNF170 / Fold change vs veh, RNF170 / RFU, ZNF28 / Fold change vs veh, ZNF28 / RFU, RNGTT / Fold change vs veh, RNGTT / RFU, OGT / Fold change vs veh, OGT / RFU, BRD1 / Fold change vs veh, BRD1 / RFU, MARS / Fold change vs veh, MARS / RFU, ZNF655 / Fold change vs veh, ZNF655 / RFU, FAHD1 / Fold change vs veh, FAHD1 / RFU, BDP1 / Fold change vs veh, BDP1 / RFU, LRRCC1 / Fold change vs veh, LRRCC1 / RFU, ARID1A / Fold change vs veh, ARID1A / RFU, ZNF146 / Fold change vs veh, ZNF146 / RFU, ZNF330 / Fold change vs veh, ZNF330 / RFU, GPN3 / Fold change vs veh, GPN3 / RFU, C9orf123 / Fold change vs veh, C9orf123 / RFU, N4BP2L2 / Fold change vs veh, N4BP2L2 / RFU, ARFIP1 / Fold change vs veh, ARFIP1 / RFU, FAM179B / Fold change vs veh, FAM179B / RFU, BCL10 / Fold change vs veh, BCL10 / RFU, UHRF1BP1L / Fold change vs veh, UHRF1BP1L / RFU, BET1 / Fold change vs veh, BET1 / RFU, CNOT2 / Fold change vs veh, CNOT2 / RFU, ZNF268 / Fold change vs veh, ZNF268 / Fold change vs veh, ZNF507 / RFU, DGCR2 / Fold change vs veh, DGCR2 / RFU, WDSUB1 / Fold change vs veh, WDSUB1 / Fold change vs veh, HSP90B1 /// MIR3652 / RFU, ADSS / Fold change vs veh, ADSS / RFU, GK / Fold change vs veh, GK / RFU, ZNF148 / Fold change vs veh, ZNF148 / RFU, TAF9 / Fold change vs veh, TAF9 / RFU, SLC1A5 / Fold change vs veh, SLC1A5 / RFU, SLMO2 / Fold change vs veh, SLMO2 / RFU, ABCC4 / Fold change vs veh, ABCC4 / RFU, LOC101060439 /// RAP1B / Fold change vs veh, LOC101060439 /// RAP1B / RFU, RFX7 / Fold change vs veh, RFX7 / RFU, GTPBP10 / Fold change vs veh, GTPBP10 / RFU, CNEP1R1 / Fold change vs veh, CNEP1R1 / RFU, BIVM-ERCC5 /// ERCC5 / Fold change vs veh, BIVM-ERCC5 /// ERCC5 / RFU, ILF3 / Fold change vs veh, ILF3 / RFU 11762660_at / Fold change /veh 11762660_at / RFU VCAN (11757783_s_at) / Fold change /veh VCAN (11757783_s_at) / RFU DDX43 (11728927_at) / Fold change /veh DDX43 (11728927_at) / RFU KRT8 (11758188_x_at) / Fold change /veh KRT8 (11758188_x_at) / RFU NKD1 (11759106_at) / Fold change /veh NKD1 (11759106_at) / RFU SRD5A1 (11742802_a_at) / Fold change /veh SRD5A1 (11742802_a_at) / RFU TPSAB1 /// TPSB2 (11721975_s_at) / Fold change /veh TPSAB1 /// TPSB2 (11721975_s_at) / RFU GSTM3 (11746129_a_at) / Fold change /veh GSTM3 (11746129_a_at) / RFU IL23R (11737362_x_at) / Fold change /veh IL23R (11737362_x_at) / RFU TMEM51 (11727254_a_at) / Fold change /veh TMEM51 (11727254_a_at) / RFU PIWIL2 (11732686_x_at) / Fold change /veh PIWIL2 (11732686_x_at) / RFU ORM1 (11744905_x_at) / Fold change /veh ORM1 (11744905_x_at) / RFU CCDC152 (11743942_at) / Fold change /veh CCDC152 (11743942_at) / RFU ECM1 (11717891_a_at) / Fold change /veh ECM1 (11717891_a_at) / RFU IL23R (11748794_a_at) / Fold change /veh IL23R (11748794_a_at) / RFU TNFAIP8L3 (11732012_x_at) / Fold change /veh TNFAIP8L3 (11732012_x_at) / RFU MBOAT4 (11741988_at) / Fold change /veh MBOAT4 (11741988_at) / RFU 11764193_at / Fold change /veh 11764193_at / RFU TMEM53 (11763286_at) / Fold change /veh TMEM53 (11763286_at) / RFU MAGEB2 (11727129_at) / Fold change /veh MAGEB2 (11727129_at) / RFU TMEM200A (11744735_a_at) / Fold change /veh TMEM200A (11744735_a_at) / RFU CCDC152 (11751479_a_at) / Fold change /veh CCDC152 (11751479_a_at) / RFU FAM211A (11726209_a_at) / Fold change /veh FAM211A (11726209_a_at) / RFU RGS16 (11746705_a_at) / Fold change /veh RGS16 (11746705_a_at) / RFU VCAN (11755009_s_at) / Fold change /veh VCAN (11755009_s_at) / RFU RHOB (11743442_s_at) / Fold change /veh RHOB (11743442_s_at) / RFU RGS16 (11720943_a_at) / Fold change /veh RGS16 (11720943_a_at) / RFU RGS16 (11720944_at) / Fold change /veh RGS16 (11720944_at) / RFU, VPS4B / Fold change vs veh, VPS4B / RFU, CREB1 / Fold change vs veh, CREB1 / RFU, DNAJC13 / Fold change vs veh, DNAJC13 / RFU, GNAQ / Fold change vs veh, GNAQ / RFU, CDK5R1 / Fold change vs veh, CDK5R1 / RFU, ZRANB3 / Fold change vs veh, ZRANB3 / RFU, CUL4A / Fold change vs veh, CUL4A / RFU, CCNY / Fold change vs veh, CCNY / RFU, UFL1 / Fold change vs veh, UFL1 / RFU, COG3 / Fold change vs veh, COG3 / RFU, DIAPH2 / Fold change vs veh, DIAPH2 / RFU, SKA2 / Fold change vs veh, SKA2 / RFU, AFF3 / Fold change vs veh, AFF3 / RFU, LMF1 / Fold change vs veh, LMF1 / RFU, IPO11 / Fold change vs veh, IPO11 / RFU, DFFB / Fold change vs veh, DFFB / RFU, FOXP1 / Fold change vs veh, FOXP1 / RFU, CARD8 / Fold change vs veh, CARD8 / RFU, STRN3 / Fold change vs veh, STRN3 / RFU, ADK / Fold change vs veh, ADK / RFU, RASSF2 / Fold change vs veh, RASSF2 / RFU, WIPF1 / Fold change vs veh, WIPF1 / RFU, LARP1B / Fold change vs veh, LARP1B / RFU, RASA1 / Fold change vs veh, RASA1 / RFU, RB1 / Fold change vs veh, RB1 / RFU, PPFIA1 / Fold change vs veh, PPFIA1 / RFU, MAT2A / Fold change vs veh, MAT2A / RFU, CCT5 / Fold change vs veh, CCT5 / RFU, WDR92 / Fold change vs veh, WDR92 / RFU, CUX1 / Fold change vs veh, CUX1 / RFU, TTC7A / Fold change vs veh, TTC7A / RFU, TMEM135 / Fold change vs veh, TMEM135 / RFU, DEPTOR / Fold change vs veh, DEPTOR / RFU, CPM / Fold change vs veh, CPM / RFU, DNAJB6 / Fold change vs veh, DNAJB6 / RFU, CACNA2D3 / Fold change vs veh, CACNA2D3 / RFU, DTX4 / Fold change vs veh, DTX4 / RFU, TFCP2 / Fold change vs veh, TFCP2 / RFU, GMCL1 /// GMCL1P1 / Fold change vs veh, GMCL1 /// GMCL1P1 / RFU, AEBP2 / Fold change vs veh, AEBP2 / RFU, SNHG1 /// SNORD22 /// SNORD25 /// SNORD26 /// SNORD27 /// SNORD28 /// SNORD29 /// SNORD31 / Fold change vs veh, SNHG1 /// SNORD22 /// SNORD25 /// SNORD26 /// SNORD27 /// SNORD28 /// SNORD29 /// SNORD31 / Fold change (Aza/veh), C12orf56 (ProbeSet 11735607_a_at) / Fold change (ACY-1035/veh), C12orf56 (ProbeSet 11735607_a_at) / Fold change (Aza/veh), FGFR1OP (ProbeSet 11751329_s_at) / Fold change (ACY-1035/veh), FGFR1OP (ProbeSet 11751329_s_at) / Fold change (Aza/veh), VPS36 (ProbeSet 11739960_a_at) / Fold change (ACY-1035/veh), VPS36 (ProbeSet 11739960_a_at) / RFU SYPL1 (11715823_x_at) / Fold change /veh SYPL1 (11715823_x_at) / RFU IGFBP7 (11715501_s_at) / Fold change /veh IGFBP7 (11715501_s_at) / RFU REEP3 (11722064_at) / Fold change /veh REEP3 (11722064_at) / RFU IGLL1 (11728026_x_at) / Fold change /veh IGLL1 (11728026_x_at): dose or concentration left out as unconfirmed
Details: ProbeSet 11724526_at; LIST B

Nc1ccc(-c2cccs2)cc1NC(=O)c1ccc2c(c1)cc(C1CC1)n2CCN1CCOCC1 [ACY-1035]
Fold change vs veh, FAHD1: 1.05

Reference: PMC5218480 (PLoS ONE, 2017)
